Test results: patent US20080181940A1, “Method For Accelerating Expression of CPT-1” (Amorepacific Corporation, priority 2003, published 2008)

How the values were obtained:
[1] = system: obesity induced by high fat diet; assay: Body weight and food consumption of rats on high fat diet, 8 weeks of dieting; type: in vivo, Sprague-Dawley white male rat; conditions: for Body weight after dieting: after 8 weeks, high fat diet + 0.2% of each substance in diet, n = 12; for increase of body weight compared with control group with high fat diet: words, 0.2% in high fat diet, 8 weeks
Description: In order to verify the effects of the present composition to the metabolism of lipid in the fat animals induced by dieting high fat diet, Sprague-Dawley white male rat model was selected. In order to verify the effects of genistein, diadzein and glycitein to the obesity induced from high fat diet, rats of 6 weeks old were adapted for a week and assigned 12 rats for each experimental group. Experimental groups are as follows: (1) normal fat diet; (2) high fat diet; (3) high fat diet+genistein 0.2%; (4) high fat diet+L-carnitine 0.2%; (5) high fat diet+genistein 0.2%+L-carnitine 0.2%; (6) high fat diet+diadzein 0.2%; (7) high fat diet+diadzein 0.2%+L-carnitine 0.2%; (8) high fat diet+glycitein 0.2%; and (9) high fat diet+glycitein 0.2%+L-carnitine 0.2%, and the rats were […] for 8 weeks. […] The amount of diet consumed and body weight was measure three times per week during dieting.

[2] = system: obesity induced by high fat diet; assay: Weight of epididymal adipose tissue of rats after 8 weeks of high fat diet; type: in vivo, Sprague-Dawley white male rat; conditions: for Weight of epididymal adipose: after 8 weeks, high fat diet + 0.2% of each substance in diet, n = 12; for weight of epididymal adipose compared with control group with high fat diet: words, 0.2% in high fat diet, 8 weeks
Description: In order to verify the effects of the present composition to the metabolism of lipid in the fat animals induced by dieting high fat diet, Sprague-Dawley white male rat model was selected. In order to verify the effects of genistein, diadzein and glycitein to the obesity induced from high fat diet, rats of 6 weeks old were adapted for a week and assigned 12 rats for each experimental group. Experimental groups are as follows: (1) normal fat diet; (2) high fat diet; (3) high fat diet+genistein 0.2%; (4) high fat diet+L-carnitine 0.2%; (5) high fat diet+genistein 0.2%+L-carnitine 0.2%; (6) high fat diet+diadzein 0.2%; (7) high fat diet+diadzein 0.2%+L-carnitine 0.2%; (8) high fat diet+glycitein 0.2%; and (9) high fat diet+glycitein 0.2%+L-carnitine 0.2%, and the rats were dieted for 8 weeks. Basic experimental diet was purified AIN-93G diet, and high fat diet was prepared to have fat occupy 36% of the total energy (18% of the total diet), normal fat diet was prepared to have fat occupy 17% of the total energy (7% of the total diet).
After 8 weeks of dieting with the groups of normal fat diet, high fat diet, high fat diet+genistein (0.2%), high fat diet+L-carnitine (0.2%), high fat diet+genistein (0.2%)+L-carnitine (0.2%), high fat diet+diadzein (0.2%), high fat diet+diadzein (0.2%)+L-carnitine (0.2%), high fat diet+glycitein (0.2%) and high fat diet+glycitein (0.2%)+L-carnitine (0.2%), the rats were sacrificed to obtain epididymal adipose tissues. The above obtained epididymal adipose tissues were washed with saline and moistures were removed on a filter bed, then weights were measured.

CPT-1 = assay: Expression of CPT-1 mRNA in liver by northern blotting and densitometry; type: in vivo, rat; conditions: 8 weeks
Description: After 8 weeks of dieting with following four (4) groups of high fat diet, high fat diet+genistein (0.2%), high fat diet+genistein (0.2%)+L-carnitine (0.2%) and high fat diet+genistein (0.4%), the rats were sacrificed to obtain liver tissues thereof. After homogenizing the liver tissues, RNA were extracted from the tissues using TRIZOL (Life Technologies, grand Island, N.Y., USA) consisting of phenol and guanidine isothiocyanate. Degree of expression of CPT-1 mRNA from the above extracted RNA was measured by northern blotting test, and expressed quantitatively by densitometry as shown in FIGS. 2a and 2b.

[3] = cited from earlier work
[4] = system: adipocytes of male SD rat; assay: Acceleration of oxidation of neutral fat in adipocytes (glycerol released into the medium); type: cell-based; conditions: added in 10 μmol unit, control = 100%, FIG. 1
Method: Epididymal adipose tissues obtained from male SD rat were cut to small pieces, and 0.1% of collagenase (in DMEM without phenol red) was added then cultured for 2 hours at 37° C., and then filtered to obtain adipocyte.
A control was cultured in a medium not containing the composition of the present invention (experimental material). In the experimental samples, genistein and/or L-carnitine was added in 10 μmol unit. Results are calculated relatively converting the control to be 100%. Degrees of oxidation of fats are determined by measuring the concentration of glycerol separated into the medium from the adipocytes.
Experiments were performed by taking cell cultures prepared by adding colorless DMEM (Dulbeco's modified eagles medium) containing 0.5% bovine serum albumin (BAS) without fatty acid to the adipocytes. The amount of glycerol was measured with color reaction method using GPO-trinder kit purchased from Sigma (St. Louis, Mo., U.S.A) and absorption in 540 nm was measured with ELISA reader.

Compound	Body weight after dieting [1] [g]	increase of body weight compared with control group with high fat diet [1]	Weight of epididymal adipose [2] [g]	weight of epididymal adipose compared with control group with high fat diet [2]	expression of CPT-1 compared with the group of high fat diet (CPT-1; 0.2% of each substance in high fat diet, FIG. 2b)	dependence of the expression of CPT-1 on concentration (CPT-1; genistein 0.2% vs 0.4% in high fat diet)	side effects of an excessive quantity, female rats ([3]; female rats)	side effects of an excessive quantity, male rats ([3]; male rats)	oxidation of fatty acids increased compared with that of the control [4] [times]
COc1cc2c(=O)c(-c3ccc(O)cc3)coc2cc1O [glycitein]	446.4 ± 21.6	also small	6.3 ± 0.41	also small	–	–	–	–	–
O=c1c(-c2ccc(O)cc2)coc2cc(O)ccc12 [diadzein]	441.3 ± 19.4	also small	6.1 ± 0.35	also small	–	–	–	–	–
O=c1c(-c2ccc(O)cc2)coc2cc(O)cc(O)c12 [genistein]	433.5 ± 19.4	small	5.2 ± 0.67	small	increased	increases positively according to the concentration of genistein	disorder of secretion	reduction of spermatozoa and sperm	1.92
C[N+](C)(C)CC(O)CC(=O)[O-] [L-carnitine, β-hydroxy-γ-trimethylammonium butyric acid]	465.1 ± 31.8	almost the same	7.9 ± 0.45	almost the same	–	–	–	–	2.07
